# Test results from patent publication US9492471B2, “Methods of treating a disease or disorder associated with Bruton'S Tyrosine Kinase” (Celgene Avilomics Research, Inc., priority 2013, dated 2016).
# Read-outs that look alike come from different tables or passages of the source.
# How the values were obtained:
# Experiment in all cases: HotSpot kinase profiling
# Format in all cases: biochemical
# ALK4/ACVR1B = target: T1, ALK4/ACVR1B (Homo sapiens, UniProt P36896)
# T1 construct: purchased Reaction Biology Corp
# T1 sequence (P36896 24-505): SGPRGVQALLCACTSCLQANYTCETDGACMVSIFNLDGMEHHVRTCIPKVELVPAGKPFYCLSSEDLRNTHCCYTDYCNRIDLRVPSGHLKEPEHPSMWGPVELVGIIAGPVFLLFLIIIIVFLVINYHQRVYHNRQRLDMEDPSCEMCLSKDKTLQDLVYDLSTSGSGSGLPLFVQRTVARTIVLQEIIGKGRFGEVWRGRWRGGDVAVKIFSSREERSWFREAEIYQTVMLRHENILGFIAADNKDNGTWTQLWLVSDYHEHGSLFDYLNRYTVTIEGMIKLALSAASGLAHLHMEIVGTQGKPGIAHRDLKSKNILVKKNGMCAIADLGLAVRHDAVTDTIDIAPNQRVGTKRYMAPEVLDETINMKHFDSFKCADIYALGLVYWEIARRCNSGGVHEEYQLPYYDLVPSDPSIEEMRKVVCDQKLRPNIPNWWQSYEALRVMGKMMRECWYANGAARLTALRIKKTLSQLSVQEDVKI
# Outline: (§1)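 Activity is measured by radiolabel transfer captured on P81 filters after a 2 h room-temperature reaction of kinase, substrate and cofactors. Values are percent inhibition against DMSO.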
# CAMK1d = target: T2, CAMK1d (Homo sapiens, UniProt Q8IU85)
# T2 construct: purchased Reaction Biology Corp
# T2 sequence (Q8IU85 whole entry): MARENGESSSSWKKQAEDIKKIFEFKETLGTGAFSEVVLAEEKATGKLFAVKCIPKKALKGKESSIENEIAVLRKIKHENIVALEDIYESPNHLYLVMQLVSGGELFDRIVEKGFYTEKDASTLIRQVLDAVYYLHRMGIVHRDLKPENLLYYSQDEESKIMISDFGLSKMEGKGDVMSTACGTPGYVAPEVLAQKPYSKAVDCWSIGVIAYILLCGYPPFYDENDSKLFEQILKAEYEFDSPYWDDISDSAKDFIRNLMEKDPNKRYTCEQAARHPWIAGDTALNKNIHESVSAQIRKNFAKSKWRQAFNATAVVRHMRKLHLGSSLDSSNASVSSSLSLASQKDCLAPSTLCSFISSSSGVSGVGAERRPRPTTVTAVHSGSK
# Outline: as §1
# GRK5 = target: T3, GRK5 (Homo sapiens, UniProt P34947)
# T3 construct: purchased Reaction Biology Corp
# T3 sequence (P34947 whole entry): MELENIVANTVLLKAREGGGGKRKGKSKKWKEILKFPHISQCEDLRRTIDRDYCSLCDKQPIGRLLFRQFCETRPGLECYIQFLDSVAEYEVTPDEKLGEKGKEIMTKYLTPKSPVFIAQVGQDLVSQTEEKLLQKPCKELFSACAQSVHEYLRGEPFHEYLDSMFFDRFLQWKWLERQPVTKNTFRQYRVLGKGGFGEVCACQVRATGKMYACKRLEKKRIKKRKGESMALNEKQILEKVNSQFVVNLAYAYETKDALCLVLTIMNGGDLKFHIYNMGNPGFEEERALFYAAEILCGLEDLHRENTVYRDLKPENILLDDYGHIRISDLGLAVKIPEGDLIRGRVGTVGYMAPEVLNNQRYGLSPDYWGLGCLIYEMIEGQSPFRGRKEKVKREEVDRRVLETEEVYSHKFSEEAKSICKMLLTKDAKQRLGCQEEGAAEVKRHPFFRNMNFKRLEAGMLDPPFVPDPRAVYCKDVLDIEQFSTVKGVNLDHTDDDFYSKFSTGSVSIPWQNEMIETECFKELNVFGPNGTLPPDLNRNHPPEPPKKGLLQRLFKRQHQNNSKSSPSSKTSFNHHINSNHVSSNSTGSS
# Outline: as §1
# IRR/INSRR = target: T4, IRR/INSRR (Homo sapiens, UniProt P14616)
# T4 construct: purchased Reaction Biology Corp
# T4 sequence (P14616 27-1297): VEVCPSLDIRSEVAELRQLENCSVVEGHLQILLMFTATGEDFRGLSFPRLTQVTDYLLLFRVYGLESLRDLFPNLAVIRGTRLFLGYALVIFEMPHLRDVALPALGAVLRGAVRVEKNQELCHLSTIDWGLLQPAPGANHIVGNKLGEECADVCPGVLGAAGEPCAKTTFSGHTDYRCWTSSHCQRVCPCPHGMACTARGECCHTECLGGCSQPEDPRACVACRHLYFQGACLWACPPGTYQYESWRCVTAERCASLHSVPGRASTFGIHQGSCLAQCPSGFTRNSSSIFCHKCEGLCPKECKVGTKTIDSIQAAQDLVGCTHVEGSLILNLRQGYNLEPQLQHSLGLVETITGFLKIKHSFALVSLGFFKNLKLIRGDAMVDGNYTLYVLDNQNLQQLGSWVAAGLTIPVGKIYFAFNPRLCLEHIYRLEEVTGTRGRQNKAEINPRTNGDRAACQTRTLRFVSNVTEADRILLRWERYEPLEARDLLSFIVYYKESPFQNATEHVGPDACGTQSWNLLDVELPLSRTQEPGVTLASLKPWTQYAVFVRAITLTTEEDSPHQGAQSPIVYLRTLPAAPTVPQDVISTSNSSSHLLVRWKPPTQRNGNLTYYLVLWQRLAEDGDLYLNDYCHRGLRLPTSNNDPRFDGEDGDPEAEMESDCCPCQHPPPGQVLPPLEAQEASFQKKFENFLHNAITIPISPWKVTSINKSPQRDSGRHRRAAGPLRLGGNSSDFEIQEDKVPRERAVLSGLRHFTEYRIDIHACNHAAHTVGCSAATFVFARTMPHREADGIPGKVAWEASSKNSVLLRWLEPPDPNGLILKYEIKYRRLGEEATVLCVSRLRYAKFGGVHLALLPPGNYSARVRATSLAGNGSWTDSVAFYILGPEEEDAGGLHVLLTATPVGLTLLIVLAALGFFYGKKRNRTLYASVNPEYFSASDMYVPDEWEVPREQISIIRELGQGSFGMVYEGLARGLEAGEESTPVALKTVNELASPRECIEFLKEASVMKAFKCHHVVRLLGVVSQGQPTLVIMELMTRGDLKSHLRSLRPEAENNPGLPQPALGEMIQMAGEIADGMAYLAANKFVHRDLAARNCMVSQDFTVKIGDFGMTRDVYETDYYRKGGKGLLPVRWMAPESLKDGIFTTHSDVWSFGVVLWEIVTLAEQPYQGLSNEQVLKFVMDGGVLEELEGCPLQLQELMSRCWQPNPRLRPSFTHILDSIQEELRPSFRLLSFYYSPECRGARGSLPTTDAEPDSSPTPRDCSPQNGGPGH
# Outline: as §1
# MAPKAPK3 = target: T5, MAPKAPK3 (Homo sapiens, UniProt Q16644)
# T5 construct: purchased Reaction Biology Corp
# T5 sequence (Q16644 whole entry): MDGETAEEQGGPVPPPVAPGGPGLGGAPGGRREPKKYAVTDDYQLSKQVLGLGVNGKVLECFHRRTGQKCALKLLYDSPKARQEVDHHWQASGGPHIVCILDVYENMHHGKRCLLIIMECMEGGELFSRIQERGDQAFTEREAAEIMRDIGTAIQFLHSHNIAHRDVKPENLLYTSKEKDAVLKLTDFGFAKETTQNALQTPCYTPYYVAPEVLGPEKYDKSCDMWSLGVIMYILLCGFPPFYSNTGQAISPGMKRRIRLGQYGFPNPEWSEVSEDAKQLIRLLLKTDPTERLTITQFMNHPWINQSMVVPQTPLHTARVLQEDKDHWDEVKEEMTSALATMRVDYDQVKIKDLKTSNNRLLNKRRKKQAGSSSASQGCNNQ
# Outline: as §1
# NEK4 = target: T6, NEK4 (Homo sapiens, UniProt P51957)
# T6 construct: purchased Reaction Biology Corp
# Outline: as §1
# PHKg2 = target: T7, PHKg2 (Homo sapiens, UniProt P15735)
# T7 construct: purchased Reaction Biology Corp
# T7 sequence (P15735 1-406): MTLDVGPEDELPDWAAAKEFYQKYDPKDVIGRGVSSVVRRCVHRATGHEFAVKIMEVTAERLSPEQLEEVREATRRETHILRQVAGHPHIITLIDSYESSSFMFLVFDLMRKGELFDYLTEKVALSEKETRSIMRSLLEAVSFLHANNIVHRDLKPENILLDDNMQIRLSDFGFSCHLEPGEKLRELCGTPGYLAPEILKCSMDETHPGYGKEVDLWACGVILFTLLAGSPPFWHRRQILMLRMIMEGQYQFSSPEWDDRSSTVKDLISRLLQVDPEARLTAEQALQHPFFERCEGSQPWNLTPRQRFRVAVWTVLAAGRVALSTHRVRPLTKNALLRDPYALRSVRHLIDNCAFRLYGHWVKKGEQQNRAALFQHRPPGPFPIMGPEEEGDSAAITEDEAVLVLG
# Outline: as §1
# SRMS = target: T8, SRMS (Homo sapiens, UniProt Q9H3Y6)
# T8 construct: purchased Reaction Biology Corp
# T8 sequence (Q9H3Y6 whole entry): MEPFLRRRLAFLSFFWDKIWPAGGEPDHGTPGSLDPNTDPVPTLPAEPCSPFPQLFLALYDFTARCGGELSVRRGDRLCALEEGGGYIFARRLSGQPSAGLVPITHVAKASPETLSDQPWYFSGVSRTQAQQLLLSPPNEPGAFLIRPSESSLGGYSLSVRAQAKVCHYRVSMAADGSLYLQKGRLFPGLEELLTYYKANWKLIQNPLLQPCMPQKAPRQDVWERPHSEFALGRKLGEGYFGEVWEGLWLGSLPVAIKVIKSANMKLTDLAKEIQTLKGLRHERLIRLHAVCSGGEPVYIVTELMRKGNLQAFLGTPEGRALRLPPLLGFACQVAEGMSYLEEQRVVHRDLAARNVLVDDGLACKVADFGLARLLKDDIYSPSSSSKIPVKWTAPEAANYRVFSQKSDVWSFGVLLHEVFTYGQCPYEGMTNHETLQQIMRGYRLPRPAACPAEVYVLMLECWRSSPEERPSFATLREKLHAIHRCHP
# Outline: as §1
# STK39/STLK3 = target: T9, STK39/STLK3 (Homo sapiens, UniProt Q9UEW8)
# T9 construct: purchased Reaction Biology Corp
# Outline: as §1
# TAK1 = target: T10, TAK1 (Homo sapiens, UniProt O43318)
# T10 construct: purchased Reaction Biology Corp
# T10 sequence (O43318 1-303 limits assumed): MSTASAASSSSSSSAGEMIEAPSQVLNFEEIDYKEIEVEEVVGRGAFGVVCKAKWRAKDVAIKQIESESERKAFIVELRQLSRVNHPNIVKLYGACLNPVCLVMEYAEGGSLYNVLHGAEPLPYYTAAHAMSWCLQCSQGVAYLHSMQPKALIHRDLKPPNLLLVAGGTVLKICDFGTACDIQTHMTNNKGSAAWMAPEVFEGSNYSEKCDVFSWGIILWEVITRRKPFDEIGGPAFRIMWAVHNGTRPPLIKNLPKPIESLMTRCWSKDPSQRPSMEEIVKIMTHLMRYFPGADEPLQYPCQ
# Outline: as §1
# TYK2 = target: T11, TYK2 (Homo sapiens, UniProt P29597)
# T11 construct: purchased Reaction Biology Corp
# T11 sequence (P29597 whole entry): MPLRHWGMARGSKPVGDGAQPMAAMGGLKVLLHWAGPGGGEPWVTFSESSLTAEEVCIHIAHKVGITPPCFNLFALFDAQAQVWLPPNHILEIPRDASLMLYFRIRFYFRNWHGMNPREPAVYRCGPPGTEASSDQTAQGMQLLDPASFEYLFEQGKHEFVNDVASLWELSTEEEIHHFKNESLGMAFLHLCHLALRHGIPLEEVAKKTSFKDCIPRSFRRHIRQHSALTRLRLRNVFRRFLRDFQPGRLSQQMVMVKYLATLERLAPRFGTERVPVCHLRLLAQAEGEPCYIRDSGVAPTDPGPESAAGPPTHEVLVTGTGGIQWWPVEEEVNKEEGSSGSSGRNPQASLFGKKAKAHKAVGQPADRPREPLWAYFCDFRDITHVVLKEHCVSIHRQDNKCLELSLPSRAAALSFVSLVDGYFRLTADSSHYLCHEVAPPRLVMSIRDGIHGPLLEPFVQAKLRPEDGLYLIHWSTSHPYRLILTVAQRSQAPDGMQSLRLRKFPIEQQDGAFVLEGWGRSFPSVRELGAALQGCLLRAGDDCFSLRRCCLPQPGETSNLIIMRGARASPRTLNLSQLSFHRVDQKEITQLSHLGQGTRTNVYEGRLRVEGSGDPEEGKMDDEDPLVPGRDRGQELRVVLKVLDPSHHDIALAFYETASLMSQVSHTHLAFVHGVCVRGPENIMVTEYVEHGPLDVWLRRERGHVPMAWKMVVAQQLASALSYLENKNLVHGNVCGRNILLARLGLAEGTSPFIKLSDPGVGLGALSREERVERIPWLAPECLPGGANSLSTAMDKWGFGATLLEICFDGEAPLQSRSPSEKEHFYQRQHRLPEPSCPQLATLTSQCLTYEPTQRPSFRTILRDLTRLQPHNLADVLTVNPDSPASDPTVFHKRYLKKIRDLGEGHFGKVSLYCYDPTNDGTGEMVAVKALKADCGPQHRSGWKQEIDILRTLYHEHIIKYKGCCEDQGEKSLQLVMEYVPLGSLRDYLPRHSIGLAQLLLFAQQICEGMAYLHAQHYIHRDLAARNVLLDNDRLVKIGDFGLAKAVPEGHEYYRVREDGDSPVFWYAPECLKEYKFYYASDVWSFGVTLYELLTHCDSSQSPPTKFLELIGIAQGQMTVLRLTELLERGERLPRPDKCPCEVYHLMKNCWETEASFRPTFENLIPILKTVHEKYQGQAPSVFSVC
# Outline: as §1
# c-Src = target: T12, c-Src (Homo sapiens, UniProt P12931)
# T12 construct: purchased Reaction Biology Corp
# T12 sequence (P12931 whole entry): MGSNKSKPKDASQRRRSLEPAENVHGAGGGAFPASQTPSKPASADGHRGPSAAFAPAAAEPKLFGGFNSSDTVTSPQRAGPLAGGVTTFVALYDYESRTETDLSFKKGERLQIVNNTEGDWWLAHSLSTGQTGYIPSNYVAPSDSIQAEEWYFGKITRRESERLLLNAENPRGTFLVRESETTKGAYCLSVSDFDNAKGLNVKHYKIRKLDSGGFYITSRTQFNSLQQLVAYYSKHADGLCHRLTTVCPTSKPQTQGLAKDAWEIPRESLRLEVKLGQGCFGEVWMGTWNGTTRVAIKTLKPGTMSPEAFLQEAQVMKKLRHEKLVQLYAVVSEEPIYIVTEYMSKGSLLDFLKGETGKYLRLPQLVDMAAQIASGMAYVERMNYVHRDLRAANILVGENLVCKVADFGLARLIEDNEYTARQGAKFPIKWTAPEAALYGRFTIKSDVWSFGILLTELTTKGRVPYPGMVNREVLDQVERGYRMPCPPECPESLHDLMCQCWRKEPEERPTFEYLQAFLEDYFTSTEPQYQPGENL
# Outline: as §1
# [1] = read-out: % Enzyme Activity (relative to DMSO controls) Run 1
# [2] = read-out: % Enzyme Activity (relative to DMSO controls) Run 2
structure (smiles),measurement,setting,value
C=CC(=O)Nc1cccc(Nc2nc(Nc3ccc(OCCOC)c(F)c3)ncc2F)c1 [Compound 2],inhibition at 3 µM,ALK4/ACVR1B,-42.2%
same,remaining activity at 3 µM,ALK4/ACVR1B; [1],141%
same,remaining activity at 3 µM,ALK4/ACVR1B; [2],144%
same,inhibition at 3 µM,CAMK1d,-3.36%
same,remaining activity at 3 µM,CAMK1d; [1],104%
same,remaining activity at 3 µM,CAMK1d; [2],103%
same,inhibition at 3 µM,GRK5,-2.59%
same,remaining activity at 3 µM,GRK5; [1],103%
same,remaining activity at 3 µM,GRK5; [2],102%
same,inhibition at 3 µM,IRR/INSRR,10.1%
same,remaining activity at 3 µM,IRR/INSRR; [1],88.9%
same,remaining activity at 3 µM,IRR/INSRR; [2],91%
same,inhibition at 3 µM,MAPKAPK3,-2.45%
same,remaining activity at 3 µM,MAPKAPK3; [1],102%
same,remaining activity at 3 µM,MAPKAPK3; [2],103%
same,inhibition at 3 µM,NEK4,13.5%
same,remaining activity at 3 µM,NEK4; [1],84.6%
same,remaining activity at 3 µM,NEK4; [2],88.3%
same,inhibition at 3 µM,PHKg2,-14.7%
same,remaining activity at 3 µM,PHKg2; [1],118%
same,remaining activity at 3 µM,PHKg2; [2],112%
same,inhibition at 3 µM,SRMS,-23.1%
same,remaining activity at 3 µM,SRMS; [1],124%
same,remaining activity at 3 µM,SRMS; [2],123%
same,inhibition at 3 µM,STK39/STLK3,7.74%
same,remaining activity at 3 µM,STK39/STLK3; [1],91.6%
same,remaining activity at 3 µM,STK39/STLK3; [2],92.9%
same,inhibition at 3 µM,TAK1,27.3%
same,remaining activity at 3 µM,TAK1; [1],73.4%
same,remaining activity at 3 µM,TAK1; [2],72%
same,inhibition at 3 µM,TYK2,52.6%
same,remaining activity at 3 µM,TYK2; [1],48.2%
same,remaining activity at 3 µM,TYK2; [2],46.6%
same,inhibition at 3 µM,c-Src,72%
same,remaining activity at 3 µM,c-Src; [1],28.2%
same,remaining activity at 3 µM,c-Src; [2],27.9%
